Assay results as given in publication PMC12040169 (PLOS Biology, 2025).

Test: in vitro
Conditions: human, hela cells, % viability

SMILES | viability at 28.5 h, 10 µM
COc1ccc([C@@]23CCC(NC(=O)Nc4cc(C(F)(F)F)ccc4F)C[C@@H]2N(C)CC3)cc1OC (some centres unmarked) [CBK047552T] | 87.2%
CN(C)C(=O)c1cc2cc(NC(=O)CC3COCCN3)ccc2s1 (centres unmarked) [CBK306710] | 105%
Cc1sc(-c2ccc(C(F)(F)F)cc2)nc1COc1cncc(N2CCNCC2)n1 [CBK172383G] | 85.6%
CC(=O)c1c(C)oc2ccc(N(C(C)=O)S(=O)(=O)c3ccc(C(=O)O)cc3)cc12 [CBK299790] | 106%
c1ccc(CSc2nnc3[nH]c4ccccc4n23)cc1 [CBK267841] | 91.9%
N#Cc1cccc(NC(=O)NC[C@H]2C[C@@H]3CC[N@]2C[C@@H]3CN2CCCCC2)c1 [CBK288765] | 99.5%
Cc1noc(C)c1S(=O)(=O)Nc1c(C(=O)Nc2ccc(F)cc2)[nH]c2ccccc12 [CBK050099] | 119%
Cn1c(C(N)=O)cc(=O)n1-c1ccc([N+](=O)[O-])cc1 [CBK015873] | 101%
NC(=O)c1c(NC(=O)NCc2cccnc2)sc2c1CCC2 [CBK307578] | 70.3%
Cc1cc(C)c2c(n1)sc1c(N3CCC(C(=O)O)CC3)ncnc12 [CBK300512] | 83.1%
Cc1ccsc1CN(C)C(=O)NC1CCCc2c1cnn2CCO (centres unmarked) [CBK306349] | 83%
O=C1CCC(=O)N1CCOc1nccnc1N1CCN(Cc2ccc(Cl)c(Cl)c2)CC1 [CBK084287] | 92.9%
NC(=O)CN1CCC[C@@H]2NC(=O)COc3ccccc3C(=O)N[C@@H]3CCOC[C@@H]3C/C=C/C[C@@H]21 [CBK292041] | 103%
CC1CCCN(C(=O)N(C)C)C1 (centres unmarked) [CBK023175] | 118%
COc1ccc(-c2ccc(C(=O)N(C)C)c(N3CCN(C(=O)c4ccco4)CC3)n2)cc1 [CBK106020] | 86.3%
O=C(O)c1ccc2c(c1)C(=O)N(CCCN1CCOCC1)C2=O [CBK269245] | 102%
NC(=O)N/N=C/c1ccncc1 [CBK260922] | 107%
CN1CCN(C2CC(=O)N(c3ccc(Oc4ccccc4)cc3)C2=O)CC1 (centres unmarked) [CBK265434] | 103%
Cc1cc(C(F)(F)F)c2c(NC/C=C/c3ccco3)n[nH]c2n1 [CBK283651] | 92.7%
CN(C)CC(=O)N1c2ccccc2CCc2ccc(NC(=O)c3ccccc3)cc21 [CBK261289C] | 94.2%
CCN(CC)C(=O)CN1CCN(c2nccnc2OCc2ccc(Cl)c(Cl)c2)CC1 [CBK083081T] | 101%
CCN(CC)C(=O)CCCc1[nH]nc(O)c1Cc1c(Cl)cccc1Cl [CBK081524] | 89%
CCc1ccc(S(=O)(=O)Nc2cccnc2)cc1 [CBK287782] | 87.5%

SMILES | viability at 28.5 h, 10 µM
O=C(Cc1nnn[nH]1)Nc1cccc(-c2nn[nH]n2)c1 [CBK160122] | 116%
CCc1nc2ccc(C(=O)NCCN(C)C)cn2c1N(CC)CC(=O)N(C)C [CBK146762] | 89.6%
Cc1ccccc1Cn1nc(C)c(NC(=O)c2nc3n(n2)C(C(F)F)CC(C)N3)c1C (centres unmarked) [CBK267633] | 92.6%
O=C(NCCc1ccccc1)c1ncoc1-c1cccs1 [CBK283662] | 91.8%
CCOc1ccc(C(=O)NC(=S)Nc2cccc(C(=O)O)c2C)cc1Br [CBK265100] | 93.6%
Fc1ccc(-c2cn3ccnc3c(NC3CC3)n2)cc1F [CBK066692] | 101%
CC(C)(C)OC(=O)N1CCC[C@@H](C(=O)c2cccnc2)C1 [CBK284284] | 98.2%
Cc1nc2ccccc2c(=O)n1CC(=O)NCc1ccccc1 [CBK072830] | 91.9%
O=C(O)/C(O)=C/C(=O)c1ccc(Cl)cc1 [CBK261841] | 111%
CCc1onc(C)c1NC(=O)NC1CC2(CCCC2)Oc2ccccc21 (centres unmarked) [CBK305890] | 97.6%
O=C(c1ccc2nc[nH]c2c1)N1CCC2(CCN(Cc3ccccc3)C2)C1 (centres unmarked) [CBK136862] | 94.1%
CC(C)CCCC(=O)n1ccn(CCCOc2ccccc2)c1=O [CBK106561] | 101%
Cc1cc(C)n(CC(O)CN(c2ccccc2)S(=O)(=O)c2ccccc2)n1 (centres unmarked) [CBK264469] | 118%
COc1cccc(CN2CCC(c3ncc(C(=O)Nc4ccc(F)cc4)c(C)n3)CC2)c1 [CBK285630] | 89.8%
N#Cc1c(NC(=O)CSc2nc(-c3ccco3)cc(C(F)(F)F)n2)sc2c1CCCC2 [CBK266193] | 87%
CCn1c(=O)n(CC(=O)N(C)C2CCCCC2)c2cccnc21 [CBK283786] | 86.3%
COC1CCCC(C(=O)N2CCC(c3onc4c3CCCC4)CC2)C1 (centres unmarked) [CBK284598] | 94.3%
O=C(NCC(c1ccccc1)c1ccccc1)N1CCCCC1CO (centres unmarked) [CBK156186] | 93.5%
CC(=O)O/C(N)=N/c1nonc1N [CBK021885] | 105%
Cc1noc(C)c1CC(=O)NCC(C)(C)N1CCCCC1 [CBK281863] | 90.3%
COC(=O)C1CCN(Cc2nc3sc4c(c3c(=O)[nH]2)CCC(C)C4)CC1 (centres unmarked) [CBK304978] | 99.2%
Cc1cc(C)[n+]2c(n1)N(c1ccccc1)CC2 [CBK017327G] | 80.7%
COc1ccc(C(=O)N2C[C@@H]3C[C@H](C2)c2ccc(NC(=O)C4CC4)c(=O)n2C3)cc1 [CBK289072] | 90%

SMILES | viability at 28.5 h, 10 µM
COCCNC(=O)c1ccc(-c2cc(C(C)C)ccc2OC)nc1N(C)C [CBK106061] | 103%
COc1ccc(-c2cn3ccnc3c(N3CCCCC3CO)n2)cc1OC (centres unmarked) [CBK066230] | 107%
N#Cc1ccccc1NC(=O)C(CC(=O)O)NCc1ccccc1 (centres unmarked) [CBK286907] | 83.6%
COc1ccc(Cl)cc1NC(=O)CN(C1CCCCC1)S(C)(=O)=O [CBK266720] | 105%
COc1ccc(Nc2nnc(-c3ccc(C(N)=O)cc3)c3ccccc23)cc1 [CBK264246] | 92.7%
COc1ccc([C@@]23CC[C@@H](NC(=O)Cc4ccc(Cl)cc4)CC2N(C)CC3)cc1OC (some centres unmarked) [CBK074971T] | 96%
CC1CCN(Cc2ccc(-c3cn(CC(=O)NCc4ccc(OC(F)(F)F)c(F)c4)nn3)cc2)CC1 [CBK167536] | 87.3%
COc1ccc(-n2cc(-c3ccc(C(F)(F)F)cc3)nn2)cc1OC [CBK112952] | 96.8%
O=C(O)CCc1ccc(-c2ccc(Cl)cc2)[nH]1 [CBK264781] | 100%
O=C1CC(c2nc(-c3ccncc3)no2)CN1c1ccc2c(c1)OCO2 (centres unmarked) [CBK288583] | 110%
FC(F)(F)c1cccc(Oc2nnnn2-c2ccccc2)c1 [CBK002798] | 92.6%
O=C(Nc1nccc(N2CCNCC2)n1)C1CCCC1 [CBK004302T] | 113%
CCCCn1c(SCCC(=O)Nc2ccccc2C(=O)c2ccccc2)n[nH]c1=O [CBK296693] | 87.3%
Cc1cc(C(F)(F)F)nn1CCC(=O)Nc1cnn(C)c1C(=O)O [CBK286817] | 98.4%
COc1ccc(C(=O)Nc2nc(OC)cnc2-c2ccsc2)cc1 [CBK145293] | 81.4%
CC(=O)NC(CC(=O)NCc1cccnc1-n1cncn1)c1ccc(Cl)cc1 (centres unmarked) [CBK298314] | 101%
CCc1nccn1CC(=O)NC(Cc1ccsc1)c1nccs1 (centres unmarked) [CBK285139] | 111%
CN1CCC(N2CCN(C(=O)NCCOc3ccccc3)CC2)CC1 [CBK156098] | 86.9%
CN(C)c1ncc(Br)cc1C(=O)NCCNS(=O)(=O)c1ccccc1 [CBK076504] | 89.4%
O=C(Nc1cc(-c2nc3ncccc3o2)ccc1Cl)c1ccc2c(c1)OCCO2 [CBK264105] | 95%
CCN(CC)C(=O)C1CCCN(C(=O)NCCCSC)C1 (centres unmarked) [CBK156118] | 95.1%
Cc1cnc(Nc2cccc(C3CCCN3C(=O)CCOc3ccccc3C)n2)s1 (centres unmarked) [CBK285972] | 112%
CCOc1nc2c(c(C(F)(F)F)n1)CC(C)C/C2=C\c1ccccc1 (centres unmarked) [CBK265800] | 94.8%

SMILES | viability at 28.5 h, 10 µM
Cc1ccc(-c2cncc(NCc3cccs3)n2)cc1C [CBK065967] | 106%
Cc1cc(C(=O)N2CCCCCC2c2c(Cl)cnn2C)on1 (centres unmarked) [CBK284916] | 99.3%
COc1cc(CNc2cc(-c3ccsc3)ncn2)cc(OC)c1OC [CBK037794] | 92%
CC(C)(C)c1ccc(Oc2c(C(F)(F)F)oc3cc(OCC(=O)O)ccc3c2=O)cc1 [CBK217882] | 94.1%
COc1ccc(CC(=O)Nc2ccc(Nc3ccccc3)cc2)cc1 [CBK263884] | 114%
c1ccc(COc2ccc3[nH]c4c(c3c2)CCNC42CCCN(CC3CC3)C2)cc1 (centres unmarked) [CBK040619] | 100%
C=C(C)CNC(=O)c1cc(-c2ccc(OC)cc2)cnc1NCC1CC1 [CBK076339] | 97.7%
Nc1ccn(C2CC(O)C(CO)O2)c(=O)n1 (centres unmarked) [CBK201203] | 95.4%
O=C(Cc1c(F)cccc1F)Nc1ccc2[nH]ccc2c1 [CBK144712] | 120%
Cc1nn2c(=O)[nH]ncc2c1-c1ccccc1C(=O)N(C(C)C)C(C)C [CBK307043] | 109%
Nc1ncc(-c2ccsc2)c2cccnc12 [CBK067580] | 97.5%
Nc1ncc(-c2cccc3ccccc23)nc1Nc1ccc2[nH]ccc2c1 [CBK063659] | 90.9%
CCc1cc(Br)ccc1S(=O)(=O)Nc1ccnn1CC [CBK044900] | 92.7%
CCc1nc2ccccc2n1CC(=O)N(C)C(C)c1cccnc1 (centres unmarked) [CBK304017] | 110%
CCOC(=O)c1[nH]c2ccccc2c1NS(=O)(=O)c1ccc(OC)c(OC)c1 [CBK047421] | 86%
Fc1ccc(COc2cccc(CNCc3ccccn3)c2)cc1 [CBK269987C] | 109%
c1ccc2c(c1)CCC[C@H]2Oc1cncc(N2CCNCC2)n1 [CBK172388G] | 90.7%
CSc1ncc(Cl)c(C(=O)Nc2sc3c(c2C(=O)NCc2cccnc2)CCC3)n1 [CBK268710] | 95.9%
CC(Oc1ccc(Br)cc1)C(=O)Nc1nc2c(s1)CCC2 (centres unmarked) [CBK296723] | 84.8%
NS(=O)(=O)c1ccc(CCNC(=O)c2ccccc2Oc2ccccc2)cc1 [CBK264394] | 89.4%
